From patent publication US20220241228A1, “Treatment of cholangiopathies” (CymaBay Therapeutics, Inc., priority 2021, published 2022)
Like-named read-outs stand apart in the source and are kept apart here.

What was measured:
PBC patients [1] = settings: 12-month trial, cited from earlier work
PPARα = biological target: T1, PPARα (Homo sapiens, UniProt Q07869); experiment: Specificity of seladelpar compared with PPARα; type: biochemical; settings: PPARδ versus PPARα
T1 sequence (Q07869 1-468): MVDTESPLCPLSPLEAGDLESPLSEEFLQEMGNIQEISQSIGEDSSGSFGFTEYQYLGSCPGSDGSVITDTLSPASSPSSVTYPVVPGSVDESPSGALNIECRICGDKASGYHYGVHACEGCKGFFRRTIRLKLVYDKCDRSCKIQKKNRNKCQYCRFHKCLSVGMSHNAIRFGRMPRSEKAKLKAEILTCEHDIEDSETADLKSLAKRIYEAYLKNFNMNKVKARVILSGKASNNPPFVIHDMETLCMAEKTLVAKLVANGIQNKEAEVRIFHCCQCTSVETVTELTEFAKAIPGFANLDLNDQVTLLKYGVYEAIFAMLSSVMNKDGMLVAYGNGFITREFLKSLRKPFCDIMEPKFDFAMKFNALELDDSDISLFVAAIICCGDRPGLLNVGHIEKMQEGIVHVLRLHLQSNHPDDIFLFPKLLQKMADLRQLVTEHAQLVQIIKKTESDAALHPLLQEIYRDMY
Description: It is specific (>600-fold and >2500-fold compared with PPARα and PPARγ receptors). PPARδ activation stimulates fatty acid oxidation and utilization, improves plasma lipid and lipoprotein metabolism, glucose utilization, and mitochondrial respiration, and preserves stem cell homeostasis.

subjects with PSC = experiment: Randomized placebo-controlled 24-week trial in primary sclerosing cholangitis (Example 2); type: in vivo, human; settings: 5, 10, or 20 mg/day orally once/day for 24 weeks
Method: Trial subjects are adult, male or female, with a diagnosis of PSC by at least two of the following three criteria: (a) historical evidence of an elevated AP >ULN from any prior laboratory result, (b) liver biopsy consistent with PSC, and (c) abnormal cholangiography consistent with PSC as measured by MRCP, ERCP, or percutaneous transhepatic cholangiography; on a stable and recommended dose of UDCA ≤20 mg/Kg/day for the past six months or at least twelve weeks off UDCA treatment; and intolerant of, or having an inadequate response to, obeticholic acid and/or a fibrate. Other criteria include ALP ≥1.5×ULN, TBIL ≤2×ULN, ALT and AST both ≤5×ULN, eGFR >60 mL/min/1.73 m^2, platelets ≥140×10^3/μL, INR ≤1.3 (in the absence of warfarin or other anticoagulant therapy), and albumin ≥3.5 g/dL. Exclusion criteria include clinically significant acute or chronic liver disease of an etiology other than PSC, a diagnosis of overlapping autoimmune hepatitis (AIH) and PSC, secondary or IgG4 related sclerosing cholangitis, small duct PSC, presence of a cholangiocarcinoma on cholangiography or MRI, bile duct stenting, history, evidence, or high suspicion of cholangiocarcinoma or other hepatobiliary malignancy, presumptive or diagnosed acute cholangitis within twelve weeks, and evidence of compensated or decompensated cirrhosis. […]

[2] = tested on: Subjects with primary biliary cholangitis; experiment: Pooled open-label Phase 2 and placebo-controlled Phase 3 studies of seladelpar in PBC subjects intolerant of, or with inadequate response to, obeticholic acid and/or a fibrate; type: in vivo, human; settings: for Composite endpoint met / ALP ≤ ULN / Mean change in ALT / Mean change in TBIL / Mean change in ALP: three months; for Composite endpoint met: ALP <1.67×ULN, >15% decrease in ALP, and TBIL ULN; for Mean change in ALP: from baseline
Description: The trial subjects were adult, male or female, with a diagnosis of PBC by at least two of the following three criteria: (a) a history of ALP above the upper limit of normal (ULN) for at least six months, (b) positive anti-mitochondrial antibody titers > 1/40 on immunofluorescence or M2 positive by enzyme linked immunosorbent assay or positive PBC-specific antinuclear antibodies, and (c) documented liver biopsy result consistent with PBC, on a stable and recommended dose of UDCA for the past twelve months or UDCA intolerant, and ALP ≥1.67×ULN. Exclusion criteria included AST or ALT ≥3×ULN, TBIL ≥2×ULN, autoimmune hepatitis or a history of chronic viral hepatitis, PSC, the current use of fibrates or simvastatin, the use of colchicine, methotrexate, azathioprine, or systemic steroids in the previous two months, the use of an experimental treatment for PBC, and the use of an experimental or unapproved immunosuppressant. […] Efficacy was assessed on subjects treated for three months. The composite endpoint was the responder rate for subjects achieving ALP <1.67×ULN, >15% decrease in ALP, and TBIL ULN. Additional endpoints were ALP ULN, ALP change from baseline, and other markers of liver function. Safety was assessed over one year. […] Fifty-one subjects were treated for 3 months; and 37 were assessed; with results in the table below: A safety analysis was performed on all 71 subjects.

[3] = tested on: patients with primary biliary cholangitis; settings: over a 52-week period; cited from earlier work
PBC patients [4] = settings: cited from earlier work
[5] = PBC subjects intolerant of, or inadequate response to, obeticholic acid and/or a fibrate

Structure (SMILES): CC[C@H]1[C@@H](O)[C@@H]2[C@H](CC[C@]3(C)[C@@H]([C@H](C)CCC(=O)O)CC[C@@H]23)[C@@]2(C)CC[C@@H](O)C[C@@H]12 [OCA, 6α-ethylchenodeoxycholic acid]
- patients with severe pruritus (PBC patients [1]; OCALIVA 10 mg arm): 23%
- patients with severe pruritus (PBC patients [1]; OCALIVA titration arm): 19%

Structure (SMILES): CCO[C@H](COc1ccc(C(F)(F)F)cc1)CSc1ccc(OCC(=O)O)c(C)c1 [Seladelpar, [4-({(2R)-2-ethoxy-3-[4-(trifluoromethyl)phenoxy]propyl}sulfanyl)-2-methylphenoxy]acetic acid]
- specificity compared with PPARα (PPARα): > 600 fold
- ALP (subjects with PSC): dose-related reductions
- PSC-related symptoms (subjects with PSC): improvements
- Pruritus adverse events experienced ([2]; 5 mg/day orally once/day): 15%
- Composite endpoint met ([2]; 5 mg/day orally once/day as L-lysine dihydrate salt): 40%
- ALP ≤ ULN ([2]; 5 mg/day orally once/day): 0
- Mean change in ALT ([2]; 5 mg/day orally once/day): −13%
- Mean change in TBIL ([2]; 5 mg/day orally once/day): −3%
- Mean change in ALP ([2]; 5 mg/day orally once/day): −31%
- subjects who experienced a serious adverse event ([2]; 5 mg/day, safety analysis on all 71 subjects, all unrelated to seladelpar): three
- subjects who discontinued treatment due to adverse events ([2]; 5 mg/day, safety analysis on all 71 subjects, one ALT/AST elevation, one gastroesophageal reflux disease): two
- Pruritus adverse events experienced ([2]; 10 mg/day orally once/day): 7%
- Composite endpoint met ([2]; 10 mg/day orally once/day as L-lysine dihydrate salt): 79%
- ALP ≤ ULN ([2]; 10 mg/day orally once/day): 21%
- Mean change in ALT ([2]; 10 mg/day orally once/day): −21%
- Mean change in TBIL ([2]; 10 mg/day orally once/day): −9%
- Mean change in ALP ([2]; 10 mg/day orally once/day): −45%
- biochemical markers of cholestasis [2, 5]: meaningful improvement
- safety and tolerability [2, 5]: safe, well tolerated
- ALP and GGT [3]: statistically significant decreases
- ALT [3]: statistically significant decrease
- total bilirubin levels [3]: stable

Structure (SMILES): C[C@H](CCC(=O)O)[C@H]1CC[C@H]2[C@@H]3[C@@H](O)C[C@@H]4C[C@H](O)CC[C@]4(C)[C@H]3CC[C@]12C [UDCA, ursodeoxycholic acid]
- patients reported to be intolerant to treatment (PBC patients [4]): about 5%
